Here are results for one compound from patent US8871794B2, “Small-molecule agonists for type-2 orexin receptor” (Board of Regents, The University of Texas System, priority 2008, dated 2014).

Like-named read-outs stand apart in the source and are kept apart here.

Data set [1] can be described thus: Metabolism in mouse CD-1 S9 fractions (phase I, phase I+II). Type of data set: in vitro ADME. Conditions: for half-life at 2 μM: CD-1, mouse, S9 fractions (hepatocyte S9). How it is done:
Metabolism: 2 μM Yan7874 was incubated in 1 ml 0.1 M Tris/0.5% NaHCO3/3 mm MgCl2 solution with 1 mg mouse CD-1 S9 protein (In Vitro Technologies, Baltimore, Md.) at 37° C. Cofactors necessary for phase I and II metabolism were added as recommended by In Vitro Technologies (phase I: 1.7 mg/ml NADP, 7.8 mg/ml glucose-6-phophate, 6 U/ml glucose-6-phosphate dehydrogenase; phase II additionally add 1.9 mg/ml uridine 5′-diphospho-α-D-glucuronic acid and 100 μg/ml 3′-phosphoadenosine-5′-phophosulphate). Protein was precipitated by the addition of 1 volume of methanol. Samples in 50:50 buffer:methanol+0.1% added formic acid were analyzed as follows. An analytical method was developed to detect Yan7874 using LC/MS/MS. […] The fraction of parent compound remaining was plotted over time and a curve fit to the data. The time at which 50% of compound remains is designated the in vitro half-life.

The target of data set [2] is T1, OX1R (Homo sapiens, UniProt O43613).
T1 construct: Open reading frames of OX1R, OX2R and GRP (control) receptor were inserted into a bicistronic retrovirus expression vector; expressed in transfected cells; host or cells: CHO cells harboring ecotropic retroviral receptor, infected with retrovirus and selected with puromycin
T1 sequence (O43613 1-425): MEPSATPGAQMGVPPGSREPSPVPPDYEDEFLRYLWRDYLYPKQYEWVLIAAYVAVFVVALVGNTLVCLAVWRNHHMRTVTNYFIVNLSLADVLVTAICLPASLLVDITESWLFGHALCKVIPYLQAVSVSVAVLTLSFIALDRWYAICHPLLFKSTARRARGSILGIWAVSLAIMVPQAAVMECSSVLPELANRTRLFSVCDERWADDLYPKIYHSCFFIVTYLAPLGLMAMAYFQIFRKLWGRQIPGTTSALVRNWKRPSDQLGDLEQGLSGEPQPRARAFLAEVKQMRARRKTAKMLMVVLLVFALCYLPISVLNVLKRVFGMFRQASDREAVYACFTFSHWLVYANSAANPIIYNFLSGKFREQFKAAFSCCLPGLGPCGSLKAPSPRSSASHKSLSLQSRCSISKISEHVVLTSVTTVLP
As to the kind of experiment: Intracellular Calcium Transient Assay in OX1R-expressing CHO cells. Type of data set: cell-based. How it is done: DNA Construction: Open reading frames of OX1R, OX2R and GRP (control) receptor were inserted into a bicistronic retrovirus expression vector, pMXs-IRES-puror (pMXs-IP), which carried a FLAG™ epitope cDNA sequence at the beginning of the ORF sequences encoding their human polypeptides.
Transfection and retrovirus production: Transfection was carried out using FuGENE 6 (Roche Diagnostics Corp.) according to the manufacturer's recommendations. Retroviruse fluid was harvested after 48 hours post transfection.
Cell lines: To generate receptor expressing cells, CHO cells harboring ecotropic retroviral receptor were infected with a retroviral supernatant. After 24 hours post infection, the retrovirus supernatant was removed and infected cells were selected with 10 μg/ml of puromycin (Sigma-Aldrich, St. Louis, Mo.). […]
0.5 ml aliquot of the cell suspension was stimulated by addition of 5 μl of compound dissolved in DMSO. Changes of [Ca^2+]i transients in cells were measured at RT by using CAF-110 Intracellular Ion Analyser (JASCO, Tokyo) with the excitation wave lengths of 340 nm and 380 nm and emission wavelength of 500 nm

The test system of data set [3] is No Receptor_CRE. As to the kind of experiment: CRE reporter assay, no receptor control. In kind it is cell-based.
A short description of data set [4]: IP pharmacokinetics in C57BL/6 mice (plasma and brain). Type of data set: in vivo, mouse. Conditions: 30 mg/kg IP, one of the two mice.

What is called half-life is the time needed for the level to fall by half in the phase considered. In the case of `Cc1ccc(Cn2c(=N)n(CC(O)c3ccc(Cl)c(Cl)c3)c3ccccc32)cc1` (stereo not drawn) [Compound 130699], in data set [1] (2 μM, mouse CD-1 S9, 37° C.), the “stability in vitro using hepatocyte S9 fractions” value is on record as “relatively stable”. The half-life at 2 μM came to 0.933 h in data set [1] (Phase I+II, read-out: half-life for in vitro combined Phase I+II metabolism in S9 fractions) and 1.13 h in data set [1] (Phase I, read-out: half-life for in vitro Phase I metabolism in S9 fractions). For the same compound, the “Ca2+ response” value in data set [2] is recorded as “weaker response”. Also, in data set [3], the “Fold Induction, No Receptor_CRE” value is 0.797. In data set [4], the “acute reaction after injection” value was “abdominal guarding and decreased activity for up to one hour”.
